Measurements reported in US7910741B2, “Nitrogen-containing heterocyclic derivatives and drugs containing the same as the active ingredient” (Ono Pharmaceutical Co., Ltd., priority 2003, dated 2011).
Counter-ions that a name gives are not always drawn.

Assays:
human CCR5 [1] = molecular target: T1, human CCR5 (Homo sapiens, UniProt P51681); experiment: Inhibition test on the binding of RANTES to CCR5 (RANTES-induced transient increase of Ca ion in CCR5/CHO cells); type: cell-based; conditions: inhibition of RANTES (10 nM)-induced Ca2+ transient increase; CCR5/CHO cell
T1 construct: expressed in transfected cells; host or cells: Ba/F3
Method: Inhibition test on the binding of RANTES to CCR5:
(1) Isolation of Human CCR5 Gene
Human placental cDNA was prepared using Marathon cDNA amplification kit (Clontech). PCR primers hCCR5Xbal-F1:
Using the human placental cDNA as the template and using Ex Taq (Takara), PCR reaction (2 minutes at 95° C.→(30 seconds at 95° C., 45 seconds at 60° C., 1 minute at 72° C.)×35 times) was carried out. The thus amplified PCR product was subjected to a 1% agarose gel electrophoresis, purified using QIAquick Gel Extraction Kit (QUIAGEN) and then digested with a restriction enzyme XbaI. The digested fragments were ligated to an expression vector pEF-BOS-bsr using DNA Ligation Kit Ver. 2 (Takara) and transformed into Escherichia coli DH5a. […]
The thus established human CCR5 stably over-expressing CHO cell (CCR5/CHO cell) was suspended in Ham's F-12 medium containing FBS (10%) and seeded at a density of […] into a 96 well plate. […] Transient increase in the intracellular Ca^2+ concentration induced by the human RANTES was measured using a Ca^2+ detector for 96 well use (Hamamatsu Photonics), and inhibition ratio (%) of the test compound was calculated by the following calculation formula. Inhibition ratio=(Ec−Ea)/Ec×100 • Ec: measured value of Ca^2+ transient increase by RANTES • Ea: measured value of Ca^2+ transient increase by RANTES when a test compound was added.

human CCR5 [2] = molecular target: T1, human CCR5; experiment: Migration test of human CCR5 expressing cell (hCCR5-Ba/F3 cell) against RANTES; type: cell-based
Method: Migration test of human CCR5 expressing cell (hCCR5-Ba/F3 cell):
The isolation was carried out according to the method of the isolation of human CCR5 gene as described in the above Example 1.
Ba/F3 cells were statically cultured by using RMMI-1640 medium (Gibco BRL) containing antibiotics (Antibiotic-Antimycotic) (final concentration: penicillin G sodium (100 U/mL), streptomycin sulfate (100 μg/mL), amphotericin B (0.25 μg/mL)) (Gibco BRL), fetal bovine serum (FBS) (10%), 2-mercaptoethanol (55 μM) and mouse interleukin-3 (IL-3) (5 ng/mL) (Pepro Tech, Inc) in a carbon dioxide incubator (temperature: 37° C., CO2 concentration: 5%, humidity: 95%). […]
The human CCR5 expression level in the clone obtained by the method described in the above (1-C) was detected with FAC Sort (trade name, Becton, Dickinson) by detecting the cells with a fluorescence isothiocyanate (FITC)-labeled anti-human CCR5 antibody (BD Pharmingen) and analyzed. […]
Influence of a test compound on the migration ability of the human CCR5 expressing Ba/F3 cell against RANTES, MIP-1α or […] was examined. […] The cells on the microplate were suspended in 100 μl of a phosphate buffer (PBS), and 1/10 portion thereof was further diluted with 90 μl of PBS, moved on a white plate for fluorescence assay, and used as an assay sample for migrated cell numbers (final: 100 μl/well). […]

T1 sequence (P51681 whole entry): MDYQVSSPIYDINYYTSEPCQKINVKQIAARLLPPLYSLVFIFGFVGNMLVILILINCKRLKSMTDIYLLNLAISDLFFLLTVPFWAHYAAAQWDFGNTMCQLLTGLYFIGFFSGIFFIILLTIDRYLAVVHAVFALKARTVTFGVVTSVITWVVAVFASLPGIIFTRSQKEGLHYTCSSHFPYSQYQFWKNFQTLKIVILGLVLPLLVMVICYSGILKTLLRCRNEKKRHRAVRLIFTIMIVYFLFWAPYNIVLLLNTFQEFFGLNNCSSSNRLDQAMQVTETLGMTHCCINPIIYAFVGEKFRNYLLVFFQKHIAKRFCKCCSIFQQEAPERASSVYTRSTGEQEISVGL

Row | IC50 (human CCR5 [1]) | cell migration inhibition ratio (human CCR5 [2]; concentration 10 μM) | cell migration inhibition ratio (human CCR5 [2]; concentration 30 μM) | Structure (SMILES)
1 | 77 nM | – | – | CCCCN(C(=O)C1CCCCC1)C1CCN(Cc2ccc(Oc3ccc(NS(C)(=O)=O)cc3)cc2)CC1 [Example 5(2), N-butyl-N-[1-(4-{4-[(methylsulfonyl)amino]phenoxy}benzyl)piperidin-4-yl]cyclohexanecarboxamide hydrochloride]
2 | – | 42% | 77% | CCCCN(C(=O)Nc1ccc(F)cc1F)C1CCN(Cc2ccc(Oc3ccc(NS(C)(=O)=O)cc3)cc2)CC1.Cl [Example 23(126), N-[4-(4-{[4-(butyl{[(2,4-difluorophenyl)amino]carbonyl}amino)-1-piperidinyl]methyl}phenoxy)phenyl]methanesulfonamide hydrochloride]
